# Reference: patent US20100158846A1, “HAIR-BINDING PEPTIDES” (E. I. DU PONT DE NEMOURS AND COMPANY, priority 2008, published 2010)
# Conditions: biotinylated peptide binding to gray human hair bundle; streptavidin-HRP/TMB, A450; calculated from Scatchard plots
# Protocol: Then, the streptavidin-horseradish peroxidase (HRP) conjugate (Pierce Chemical Co., Rockford, Ill.) was added to each well (1.0 μg per well), and incubated for 1 h at room temperature, followed by 6 times of washes with TBST. […] The results were plotted as A450 versus the concentration of peptide using GraphPad Prism 4.0 (GraphPad Software, Inc., San Diego, Calif.).
substance,measurement,value
PLWRRITKRKLVRPVATLMWYWFTSKR-K(biotin)-NH2 [CXH-G2],MB50,72 nM
